According to article PMC11336141:
Bridge positions count the residues as written; N and C are the ends. Square brackets hold non-standard residues; d marks the D form. Peptide text beside a SMILES is read from it.

Tests used:
human SSTR2 (Gi1) = molecular target: T1, human SSTR2 (Gi1) (Homo sapiens, UniProt P30874); test: G protein activation (BRET dissociation) assay, Gi1 at hSSTR2; format: cell-based;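 on Emax ± S.E.M.: percent of the maximal response to the reference somatostatin agonist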
T1 construct: host or cells: HEK293T cells
T1 sequence (P30874 whole entry): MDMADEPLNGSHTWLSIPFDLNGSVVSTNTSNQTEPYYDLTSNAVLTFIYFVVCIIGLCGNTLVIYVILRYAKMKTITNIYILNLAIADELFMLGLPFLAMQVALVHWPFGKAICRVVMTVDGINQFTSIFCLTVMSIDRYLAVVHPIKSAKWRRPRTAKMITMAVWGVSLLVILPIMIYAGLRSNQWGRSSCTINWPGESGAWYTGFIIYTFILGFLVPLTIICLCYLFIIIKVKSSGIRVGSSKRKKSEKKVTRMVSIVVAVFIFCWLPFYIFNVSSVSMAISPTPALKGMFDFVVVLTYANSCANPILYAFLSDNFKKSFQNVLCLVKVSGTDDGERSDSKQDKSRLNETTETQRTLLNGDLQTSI
Experimental: (§4) HEK293T cells were seeded onto 6-well plates at a density of 750,000 cells/well. […] 16 to 24 hours post-transfection, HEK293T cells were seeded onto white 96 well plate (PerkinElmer) coated with poly-L-lysine (PLL) at a density of 40,000 cells/well and were allowed to grow overnight. On the day of assay, cells were washed once with phosphate-based saline (PBS) and 80 µL of assay buffer which composed of PBS with 0.5 mM MgCl2 and 0.1% glucose, pH 7.4, were added onto each well. 10 µL of Nluc luciferase substrate furimazine (Promega) were added onto each well and incubated for 3 minutes.
(§5) The net BRET ratio was determined by subtracting the BRET ratio of drugs with the BRET ratio of vehicle control. Net BRET ratio over time was then plotted using GraphPad Prism (v.9.4.1), and the area-under-curve of net BRET ratio over time course for each ligand concentration tested were then determined and plotted against log(concentration) of drugs tested. […] Concentration response curves were fitted with a 4-parameter logistic Eq. (1) using GraphPad Prism (v.9.4.1):1 Y=Emin+(Emax−Emin)/1+10^logEC50−X×Hillslope

human SSTR2 (GoB) = molecular target: T2, human SSTR2 (GoB) (Homo sapiens, UniProt P30874); test: G protein activation (BRET dissociation) assay, GoB at hSSTR2; format: cell-based;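 on Emax ± S.E.M.: percent of the maximal response to the reference somatostatin agonist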
T2 construct: host or cells: HEK293T cells
T2 sequence (P30874 whole entry): as above
Experimental: as §4, §5

Dr-sstr2b (GoA) = test: G protein dissociation assay, GoA at Dr-sstr2b; format: cell-based, zebrafish (Danio rerio)
From the text: 3xHA-tagged human SSTR2 construct was obtained from cDNA.org (cDNA resource center, Bloomsburg PA, US). […] Kirill Martemyanov (University of Florida, US). Tango constructs for human SSTR1-5 were kind gifts from Prof. Bryan Roth (University of North Carolina, Chapel Hill, US) (Addgene kit # 1000000068). Tango constructs for fish Dr-sstr2a (sequence accession number: XP_005170178.1) and Dr-sstr2b (sequence accession number: XP_017210358.1) were custom-synthesized by Twist Biosciences using the Tango construct template as described in Kroeze et al., 2015[28]. 3xHA-tagged Dr-sstr2a and 3xHA tagged Dr-sstr2b constructs were inserted into pcDNA3.1 backbone. All DNA constructs were sequenced and confirmed prior to use.
Error bars represent means ± S.E.M. of n = 3 in technical duplicates.

isolated mouse islets = test: Glucagon secretion from isolated islets; format: cell-based, mouse (C57BL/6J); conditions: for Islet glucagon secretion: -9 log M peptide
Experimental: Female C57BL/6 J mice of 12–20 weeks were used for the islet secretion. Mice were killed by cervical dislocation and pancreatic islets were isolated as previously described. […] The islets were subsequently incubated with or without drugs in 10 mM glucose KRB for an hour. Supernatant from both incubations were collected. Total islet glucagon content was determined by acid-ethanol extraction. Both the supernatant and the acid-ethanol content were stored at −80 °C until further analysis. Glucagon in both supernatant and content were measured using U-plex metabolic 2-plex combo (mouse insulin and glucagon) kit (Meso Scale Diagnostic; catalog no: K15303K) according to manufacturer’s instruction.
(§1) Data analysis were performed in GraphPad Prism (v.9.4.1). Statistical analysis were performed using two-way repeated measure analysis of variance (ANOVA) with Šidák test for isolated islets glucagon secretion and one-way repeated measure ANOVA with Dunnett's test for rat pancreas perfusion experiments. Statistical significance was taken as p < 0.05.

perfused rat pancreas [1] = test: Rat pancreas perfusion, glucagon output; set-up: species or system rat (Wistar)
Experimental: (§2) Non-fasted rats were anesthetized by a subcutaneous injection of a balanced mix of hypnorm and midazolam (0.3 mL/100 g body weight). Rats were placed on a heated operating table (37 °C) and the abdomen were opened. Blood vessels were tied off before removing the large and small intestines, the stomach, and the spleen. Then, the kidneys were ligated. […] The perfusion buffer was a modified Krebs-Ringer bicarbonate buffer with 5% (w/v) dextran T-70 (Pharmacosmos, Holbaek, Denmark), 0.1% (w/v) BSA (fraction V), 3.5 mM glucose and 3 mM vamin (Fresenius Kabi, Copenhagen, Denmark), pH adjusted to 7.4. […] Once perfusion of the pancreas was established, a catheter was inserted in the vena portae to collect the venous effluent and the rat was sacrificed by perforation of the diaphragm. After a 30-minute equilibration period, samples were collected every minute for the duration of the protocol. […] 10 mM L-Arginine was used as a positive control. Collected samples were immediately transferred on ice and stored at −20 °C until hormone analysis. Glucagon, insulin, and somatostatin concentrations in venous effluents were quantified by use of validated in-house radioimmunoassays (RIA) as previously described[36] (see below). Statistical analysis were performed where appropriate using one-way analysis of variance (ANOVA) with Dunnett’s post-test. Statistical significance was taken as p < 0.05.
(§3) Glucagon concentration in perfusion samples were measured by a validated in-house RIAs using the 4305 antibody, which reacts with the C-terminal epitope of glucagon[36] and no other cleavage products of pro-glucagon. Insulin concentrations were measured with the 2006 antibody, which measures all isoforms of rat insulin. […] Assay sensitivity was <1 pmol/L ( < 5 pmol/L for insulin detection), allowing reliable measurements of increments of at least 25 fmol/min.
as §1

perfused rat pancreas [2] = test: Rat pancreas perfusion, insulin output; set-up: species or system rat (Wistar); conditions: for effect on insulin secretion: 0.1 nM, 1 nM and 10 nM, […] glucose, n = 5 rats; for Insulin output: Mean
Experimental: as §2, §3, §1

perfused rat pancreas [3] = test: Rat pancreas perfusion, somatostatin output; set-up: species or system rat (Wistar); conditions: 0.1 nM, 1 nM and 10 nM, […] glucose, n = 10 rats
Experimental: Non-fasted rats were anesthetized by a subcutaneous injection of a balanced mix of hypnorm and midazolam (0.3 mL/100 g body weight). Rats were placed on a heated operating table (37 °C) and the abdomen were opened. Blood vessels were tied off before removing the large and small intestines, the stomach, and the spleen. Then, the kidneys were ligated. […] The perfusion buffer was a modified Krebs-Ringer bicarbonate buffer with 5% (w/v) dextran T-70 (Pharmacosmos, Holbaek, Denmark), 0.1% (w/v) BSA (fraction V), 3.5 mM glucose and 3 mM vamin (Fresenius Kabi, Copenhagen, Denmark), pH adjusted to 7.4. […] Once perfusion of the pancreas was established, a catheter was inserted in the vena portae to collect the venous effluent and the rat was sacrificed by perforation of the diaphragm. After a 30-minute equilibration period, samples were collected every minute for the duration of the protocol. […] Glucagon, insulin, and somatostatin concentrations in venous effluents were quantified by use of validated in-house radioimmunoassays (RIA) as previously described[36] […]
Glucagon concentration in perfusion samples were measured by a validated in-house RIAs using the 4305 antibody, which reacts with the C-terminal epitope of glucagon[36] and no other cleavage products of pro-glucagon. Insulin concentrations were measured with the 2006 antibody, which measures all isoforms of rat insulin. […]

[4] = test system: Dr-sstr2a with the ECL2 region of the hSSTR2; test: Activation of hybrid receptor (ECL2 of hSSTR2 inserted into Dr-sstr2a); format: cell-based; conditions: preliminary results, peer review file
From the text: To further address this, we have begun to perform mutagenesis studies on the Dr-sstr2a.

[5] = test system: human SSTR2 (Gi1-3, GoA, GoB); test: G protein activation (BRET dissociation) assay, panel of Gi/o proteins at hSSTR2; format: cell-based; conditions: hSSTR2, HEK293T cells
Experimental: as §4, §5

[6] = Solubility in aqueous solutions (observation); conditions: comparison of des-glyco nG1, pG1 and venom fraction

SMILES: CC(C)C[C@H](N)C(=O)N[C@@H](Cc1ccccc1)C(=O)N[C@H]1CSSC[C@@H](C(=O)N[C@@H](Cc2c[nH]c3ccccc23)C(=O)O)NC(=O)[C@H](CO)NC(=O)[C@H](CCCCN)NC(=O)[C@@H](Cc2c[nH]c3ccccc23)NC(=O)[C@H](Cc2ccccc2)NC1=O [pG1] (H-LFCF[dW]KSCW-OH; disulfide 3-8)
- Emax (human SSTR2 (Gi1)): 95.6 ± 8.52%
- Hill Slope (human SSTR2 (Gi1); Table S2, Gαi1): 0.81 ± 0.28
- Span ± S.E.M. (human SSTR2 (Gi1); Table S2, Gαi1): 87.89 ± 11.1
- EC50 (human SSTR2 (Gi1); Table S2, Gαi1, HEK293T, means ± S.E.M.): 6.46 nM
- Emax (human SSTR2 (GoB)): 76.7 ± 3.62%
- Hill Slope (human SSTR2 (GoB); Table S2, GαoB): 1.46 ± 0.41
- Span ± S.E.M. (human SSTR2 (GoB); Table S2, GαoB): 76.77 ± 4.97
- EC50 (human SSTR2 (GoB); Table S2, GαoB, HEK293T, means ± S.E.M.): 8.32 nM
- GoA dissociation at Dr-sstr2b in words (Dr-sstr2b (GoA); HEK293T cells): only induced GoA dissociation at the Dr-sstr2b but not the Dr-sstr2a
- Hill Slope (Dr-sstr2b (GoA); Table S5, GoA): 0.48 ± 0.10
- Span ± S.E.M. (Dr-sstr2b (GoA); Table S5, GoA): 100.43 ± 11.98
- Emax ± S.E.M. (Dr-sstr2b (GoA); Table S5, GoA, % of maximal response relative to SS-14): 105.52 ± 10.37%
- pEC50 ± S.E.M. (Dr-sstr2b (GoA); Table S5, GoA, HEK293T): 7.95 ± 0.19
- decrease of glucagon secretion (isolated mouse islets; 1 nM peptide, 1 mM glucose, 1 hour, p < 0.01, n = 9): ~ 33%
- effect on glucagon secretion in high glucose (isolated mouse islets; 1 nM peptide, 10 mM glucose): Neither SS-14 nor Consomatin pG1 affected glucagon secretion in high glucose conditions
- Islet glucagon secretion (isolated mouse islets; 1mM glucose, replicate 1): 0.1528
- Islet glucagon secretion (isolated mouse islets; 1mM glucose, replicate 2): 0.1799
- Islet glucagon secretion (isolated mouse islets; 1mM glucose, replicate 3): 0.229
- Islet glucagon secretion (isolated mouse islets; 1mM glucose, replicate 4): 0.1754
- Islet glucagon secretion (isolated mouse islets; 1mM glucose, replicate 5): 0.2817
- Islet glucagon secretion (isolated mouse islets; 1mM glucose, replicate 6): 0.2671
- Islet glucagon secretion (isolated mouse islets; 1mM glucose, replicate 7): 0.309
- Islet glucagon secretion (isolated mouse islets; 1mM glucose, replicate 8): 0.2377
- Islet glucagon secretion (isolated mouse islets; 1mM glucose, replicate 9): 0.1574
- Islet glucagon secretion (isolated mouse islets; 10mM glucose, replicate 1): 0.1057
- Islet glucagon secretion (isolated mouse islets; 10mM glucose, replicate 2): 0.1136
- Islet glucagon secretion (isolated mouse islets; 10mM glucose, replicate 3): 0.1366
- Islet glucagon secretion (isolated mouse islets; 10mM glucose, replicate 4): 0.1392
- Islet glucagon secretion (isolated mouse islets; 10mM glucose, replicate 5): 0.1398
- Islet glucagon secretion (isolated mouse islets; 10mM glucose, replicate 6): 0.1241
- Islet glucagon secretion (isolated mouse islets; 10mM glucose, replicate 7): 0.1488
- Islet glucagon secretion (isolated mouse islets; 10mM glucose, replicate 8): 0.2037
- Islet glucagon secretion (isolated mouse islets; 10mM glucose, replicate 9): 0.1689
- suppression of glucagon secretion (perfused rat pancreas [1]; 0.1 nM, within 5 minute of application, […] glucose, n = 10 rats): 24%
- further suppression of glucagon secretion (perfused rat pancreas [1]; 1 nM, subsequent application, […] glucose, n = 10 rats): 45%
- glucagon level in words (perfused rat pancreas [1]; 10 nM, […] glucose): drastically reduced the glucagon level close to null
- recovery of glucagon level after washout (perfused rat pancreas [1]; after 0.1 nM, 15-minute washout, baseline 754.9 fmol/min): failed to return to the average baseline level
- effect on insulin secretion (perfused rat pancreas [2]): did not affect insulin and somatostatin output at low glucose (3.5 mM)
- effect on insulin secretion (perfused rat pancreas [2]; listed as Consomatin pG1): no effect on somatostatin or insulin secretion in 3.5 mM glucose
- Insulin output (perfused rat pancreas [2]; 0.1nM, replicate 1): 35.5
- Insulin output (perfused rat pancreas [2]; 0.1nM, replicate 2): 10
- Insulin output (perfused rat pancreas [2]; 0.1nM, replicate 3): 25.5
- Insulin output (perfused rat pancreas [2]; 0.1nM, replicate 4): 51
- Insulin output (perfused rat pancreas [2]; 0.1nM, replicate 5): 14
- Insulin output (perfused rat pancreas [2]; 1nM, replicate 1): 15.5556
- Insulin output (perfused rat pancreas [2]; 1nM, replicate 2): 29
- Insulin output (perfused rat pancreas [2]; 1nM, replicate 3): 40
- Insulin output (perfused rat pancreas [2]; 1nM, replicate 4): 74.5
- Insulin output (perfused rat pancreas [2]; 1nM, replicate 5): 0
- Insulin output (perfused rat pancreas [2]; 10nM, replicate 1): 25
- Insulin output (perfused rat pancreas [2]; 10nM, replicate 2): 0
- Insulin output (perfused rat pancreas [2]; 10nM, replicate 3): 15
- Insulin output (perfused rat pancreas [2]; 10nM, replicate 4): 35
- Insulin output (perfused rat pancreas [2]; 10nM, replicate 5): 11.5
- effect on somatostatin secretion (perfused rat pancreas [3]): did not affect insulin and somatostatin output at low glucose (3.5 mM)
- effect on somatostatin secretion (perfused rat pancreas [3]; listed as Consomatin pG1): no effect on somatostatin or insulin secretion in 3.5 mM glucose
- activation of hybrid receptor in words [4]: activation of this hybrid receptor
- Gi/o protein dissociation in words [5]: weaker potencies at dissociating all Gi/o proteins compared to SS-14
- Gi/o protein dissociation in words ([5]; listed as Consomatin pG1): weaker potencies in dissociating different Gαi/o protein compared to SS-14 and octreotide
- solubility in aqueous solutions in words [6]: did not observe any obvious differences in the solubility
